{"source": "patent US20260262643A1", "about": "“HERBICIDAL BENZOXAZINES” (FMC CORPORATION, priority 2022, published 2026)", "key": {"kochia [1]": {"test_system": "kochia", "experiment": "Test C postemergence", "type": "in vivo, Bassia scoparia", "details": "10 days, 0 to 100 scale (0 no effect, 100 complete control)", "in_short": "(§1)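 Soil-applied (pre) and foliar (post, 1–2 leaf, 2–10 cm) sprays; surfactant-containing non-phytotoxic solvent vehicle; loam/sand substrate. Readout: visual % control at 10 d, greenhouse, versus untreated.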"}, "foxtail, giant [2]": {"test_system": "foxtail, giant", "experiment": "Test C postemergence", "type": "in vivo, Setaria faberi", "details": "10 days, 0 to 100 scale (0 no effect, 100 complete control)", "in_short": "as §1"}, "wheat [3]": {"test_system": "wheat", "experiment": "Test C postemergence", "type": "in vivo, Triticum aestivum", "details": "10 days, 0 to 100 scale (0 no effect, 100 complete control)", "in_short": "as §1"}, "ragweed [4]": {"test_system": "ragweed", "experiment": "Test C postemergence", "type": "in vivo, Ambrosia artemisiifolia", "details": "10 days, 0 to 100 scale (0 no effect, 100 complete control)", "in_short": "as §1"}, "soybean [5]": {"test_system": "soybean", "experiment": "Test C postemergence", "type": "in vivo, Glycine max", "details": "10 days, 0 to 100 scale (0 no effect, 100 complete control)", "in_short": "as §1"}, "galium": {"test_system": "galium", "experiment": "Test C postemergence", "type": "in vivo, Galium aparine", "details": "10 days, 0 to 100 scale (0 no effect, 100 complete control)", "in_short": "as §1"}, "soybean [6]": {"test_system": "soybean", "experiment": "Test C preemergence", "type": "in vivo, Glycine max", "in_short": "as §1"}, "pigweed, palmer [7]": {"test_system": "pigweed, palmer", "experiment": "Test C preemergence", "type": "in vivo, Amaranthus palmeri", "in_short": "as §1"}, "foxtail, giant [8]": {"test_system": "foxtail, giant", "experiment": "Test C preemergence", "type": "in vivo, Setaria faberi", "in_short": "as §1"}, "oat, wild [9]": {"test_system": "oat, wild", "experiment": "Test C postemergence", "type": "in vivo, Avena fatua", "details": "10 days, 0 to 100 scale (0 no effect, 100 complete control)", "in_short": "as §1"}, "horseweed": {"test_system": "horseweed", "experiment": "Test C postemergence", "type": "in vivo, Erigeron canadensis", "details": "10 days, 0 to 100 scale (0 no effect, 100 complete control)", "in_short": "as §1"}, "ducksalad": {"test_system": "ducksalad", "experiment": "Test D flooded paddy test", "type": "in vivo, Heteranthera limosa", "details": "250 g ai/ha, applied to paddy water, visual rating after 13 to 14 days, scale 0 to 100 (0 no effect, 100 complete control)", "in_short": "(§2)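 Post-flood water application at the 2-leaf stage; 3 cm flood depth kept constant; visual control rating 0–100 after 13–14 days greenhouse growth.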"}, "barnyardgrass [10]": {"test_system": "barnyardgrass", "experiment": "Test C postemergence", "type": "in vivo, Echinochloa crusgalli", "details": "10 days, 0 to 100 scale (0 no effect, 100 complete control)", "in_short": "as §1"}, "barnyardgrass [11]": {"test_system": "barnyardgrass", "experiment": "Test C preemergence", "type": "in vivo, Echinochloa crusgalli", "in_short": "as §1"}, "blackgrass [12]": {"test_system": "blackgrass", "experiment": "Test C postemergence", "type": "in vivo, Alopecurus myosuroides", "details": "10 days, 0 to 100 scale (0 no effect, 100 complete control)", "in_short": "as §1"}, "sedge, umbrella": {"test_system": "sedge, umbrella", "experiment": "Test D flooded paddy test", "type": "in vivo, Cyperus difformis", "details": "250 g ai/ha, applied to paddy water, visual rating after 13 to 14 days, scale 0 to 100 (0 no effect, 100 complete control)", "in_short": "as §2"}, "corn [13]": {"test_system": "corn", "experiment": "Test C preemergence", "type": "in vivo, Zea mays", "in_short": "as §1"}, "barnyardgrass [14]": {"test_system": "barnyardgrass", "experiment": "Test D flooded paddy test", "type": "in vivo, Echinochloa crus-galli", "details": "250 g ai/ha, applied to paddy water, visual rating after 13 to 14 days, scale 0 to 100 (0 no effect, 100 complete control)", "in_short": "as §2"}, "blackgrass [15]": {"test_system": "blackgrass", "experiment": "Test C preemergence", "type": "in vivo, Alopecurus myosuroides", "in_short": "as §1"}, "ragweed [16]": {"test_system": "ragweed", "experiment": "Test C preemergence", "type": "in vivo, Ambrosia artemisiifolia", "in_short": "as §1"}, "pigweed, palmer [17]": {"test_system": "pigweed, palmer", "experiment": "Test C postemergence", "type": "in vivo, Amaranthus palmeri", "details": "10 days, 0 to 100 scale (0 no effect, 100 complete control)", "in_short": "as §1"}, "wheat [18]": {"test_system": "wheat", "experiment": "Test C preemergence", "type": "in vivo, Triticum aestivum", "in_short": "as §1"}, "oat, wild [19]": {"test_system": "oat, wild", "experiment": "Test C preemergence", "type": "in vivo, Avena fatua", "in_short": "as §1"}, "rice": {"test_system": "rice", "experiment": "Test D flooded paddy test", "type": "in vivo, Oryza sativa", "details": "250 g ai/ha, applied to paddy water, visual rating after 13 to 14 days, scale 0 to 100 (0 no effect, 100 complete control)", "in_short": "as §2"}, "kochia [20]": {"test_system": "kochia", "experiment": "Test C preemergence", "type": "in vivo, Bassia scoparia", "in_short": "as §1"}, "ryegrass, Italian [21]": {"test_system": "ryegrass, Italian", "experiment": "Test C postemergence", "type": "in vivo, Lolium multiflorum", "details": "10 days, 0 to 100 scale (0 no effect, 100 complete control)", "in_short": "as §1"}, "corn [22]": {"test_system": "corn", "experiment": "Test C postemergence", "type": "in vivo, Zea mays", "details": "10 days, 0 to 100 scale (0 no effect, 100 complete control)", "in_short": "as §1"}, "ryegrass, Italian [23]": {"test_system": "ryegrass, Italian", "experiment": "Test C preemergence", "type": "in vivo, Lolium multiflorum", "in_short": "as §1"}, "[24]": {"details": "500 g ai/ha, preemergence, 0 to 100 scale (0 no effect, 100 complete control)"}, "[25]": {"details": "Preemergence, 125 g ai/ha, 0 to 100 scale, 0 no effect, 100 complete control"}}, "data": [{"smiles": "CCc1cc(C(=O)N2C[C@H](C)Oc3c(Cl)cccc32)cc(-n2cncn2)c1", "note": "[Compound 332]", "values": [{"measurement": "Plant response rating, Kochia", "setting": "kochia [1]; 500 g ai/ha, postemergence", "result": 60}, {"measurement": "Plant response rating, Kochia", "setting": "kochia [1]; Postemergence, 125 g ai/ha", "result": 10}, {"measurement": "Plant response rating, Foxtail, Giant", "setting": "foxtail, giant [2]; 500 g ai/ha, postemergence", "result": 90}, {"measurement": "Plant response rating, Foxtail, Giant", "setting": "foxtail, giant [2]; Postemergence, 125 g ai/ha", "result": 40}, {"measurement": "Plant response rating, Wheat", "setting": "wheat [3]; 500 g ai/ha, postemergence", "result": 20}, {"measurement": "Plant response rating, Wheat", "setting": "wheat [3]; Postemergence, 125 g ai/ha", "result": 20}, {"measurement": "Plant response rating, Ragweed", "setting": "ragweed [4]; 500 g ai/ha, postemergence", "result": 20}, {"measurement": "Plant response rating, Ragweed", "setting": "ragweed [4]; Postemergence, 125 g ai/ha", "result": 0}, {"measurement": "Plant response rating, Soybean", "setting": "soybean [5]; 500 g ai/ha, postemergence", "result": 100}, {"measurement": "Plant response rating, Soybean", "setting": "soybean [5]; Postemergence, 125 g ai/ha", "result": 90}, {"measurement": "Plant response rating, Galium", "setting": "galium; 500 g ai/ha, postemergence", "result": 100}, {"measurement": "Plant response rating, Galium", "setting": "galium; Postemergence, 125 g ai/ha", "result": 70}, {"measurement": "Soybean plant response rating", "setting": "soybean [6]; [24]", "result": 0}, {"measurement": "Plant response rating, Soybean", "setting": "soybean [6]; [25]", "result": 0}, {"measurement": "Pigweed, Palmer plant response rating", "setting": "pigweed, palmer [7]; [24]", "result": 100}, {"measurement": "Plant response rating, Pigweed, Palmer", "setting": "pigweed, palmer [7]; [25]", "result": 20}, {"measurement": "Foxtail, Giant plant response rating", "setting": "foxtail, giant [8]; [24]", "result": 100}, {"measurement": "Plant response rating, Foxtail, Giant", "setting": "foxtail, giant [8]; [25]", "result": 70}, {"measurement": "Plant response rating, Oat, Wild", "setting": "oat, wild [9]; 500 g ai/ha, postemergence", "result": 30}, {"measurement": "Plant response rating, Oat, Wild", "setting": "oat, wild [9]; Postemergence, 125 g ai/ha", "result": 10}, {"measurement": "Plant response rating, Horseweed", "setting": "horseweed; 500 g ai/ha, postemergence", "result": 0}, {"measurement": "Plant response rating, Horseweed", "setting": "horseweed; Postemergence, 125 g ai/ha", "result": 0}, {"measurement": "Plant response rating, Ducksalad (Flood)", "setting": "ducksalad", "result": 0}, {"measurement": "Plant response rating, Barnyardgrass", "setting": "barnyardgrass [10]; 500 g ai/ha, postemergence", "result": 70}, {"measurement": "Plant response rating, Barnyardgrass", "setting": "barnyardgrass [10]; Postemergence, 125 g ai/ha", "result": 40}, {"measurement": "Barnyardgrass plant response rating", "setting": "barnyardgrass [11]; [24]", "result": 90}, {"measurement": "Plant response rating, Barnyardgrass", "setting": "barnyardgrass [11]; [25]", "result": 50}, {"measurement": "Plant response rating, Blackgrass", "setting": "blackgrass [12]; 500 g ai/ha, postemergence", "result": 70}, {"measurement": "Plant response rating, Blackgrass", "setting": "blackgrass [12]; Postemergence, 125 g ai/ha", "result": 30}, {"measurement": "Plant response rating, Sedge, Umbrella (Flood)", "setting": "sedge, umbrella", "result": 0}, {"measurement": "Corn plant response rating", "setting": "corn [13]; [24]", "result": 20}, {"measurement": "Plant response rating, Corn", "setting": "corn [13]; [25]", "result": 20}, {"measurement": "Plant response rating, Barnyardgrass (Flood)", "setting": "barnyardgrass [14]", "result": 0}, {"measurement": "Blackgrass plant response rating", "setting": "blackgrass [15]; [24]", "result": 80}, {"measurement": "Plant response rating, Blackgrass", "setting": "blackgrass [15]; [25]", "result": 80}, {"measurement": "Ragweed plant response rating", "setting": "ragweed [16]; [24]", "result": 0}, {"measurement": "Plant response rating, Ragweed", "setting": "ragweed [16]; [25]", "result": 0}, {"measurement": "Plant response rating, Pigweed, Palmer", "setting": "pigweed, palmer [17]; 500 g ai/ha, postemergence", "result": 70}, {"measurement": "Plant response rating, Pigweed, Palmer", "setting": "pigweed, palmer [17]; Postemergence, 125 g ai/ha", "result": 70}, {"measurement": "Wheat plant response rating", "setting": "wheat [18]; [24]", "result": 0}, {"measurement": "Plant response rating, Wheat", "setting": "wheat [18]; [25]", "result": 0}, {"measurement": "Oat, Wild plant response rating", "setting": "oat, wild [19]; [24]", "result": 30}, {"measurement": "Plant response rating, Oat, Wild", "setting": "oat, wild [19]; [25]", "result": 30}, {"measurement": "Plant response rating, Rice (Flood)", "setting": "rice", "result": 0}, {"measurement": "Kochia plant response rating", "setting": "kochia [20]; [24]", "result": 50}, {"measurement": "Plant response rating, Kochia", "setting": "kochia [20]; [25]", "result": 0}, {"measurement": "Plant response rating, Ryegrass, Italian", "setting": "ryegrass, Italian [21]; 500 g ai/ha, postemergence", "result": 70}, {"measurement": "Plant response rating, Ryegrass, Italian", "setting": "ryegrass, Italian [21]; Postemergence, 125 g ai/ha", "result": 60}, {"measurement": "Plant response rating, Corn", "setting": "corn [22]; 500 g ai/ha, postemergence", "result": 30}, {"measurement": "Plant response rating, Corn", "setting": "corn [22]; Postemergence, 125 g ai/ha", "result": 30}, {"measurement": "Ryegrass, Italian plant response rating", "setting": "ryegrass, Italian [23]; [24]", "result": 90}, {"measurement": "Plant response rating, Ryegrass, Italian", "setting": "ryegrass, Italian [23]; [25]", "result": 60}]}]}
